Measurements from publication PMC11392244, “Characterization of a unique catechol-O-methyltransferase as a molecular drug target in parasitic filarial nematodes” (PLOS Neglected Tropical Diseases, 2024).
Values joined by “and” are separate entries in the source; they are usually repeats but may differ in a detail not shown here. Identical values can stand only once.

Legend:
D. immitis microfilariae = test: In vitro efficacy against live D. immitis microfilariae (motility, completely immotile %); assay type: cell-based, Dirofilaria immitis
mammalian cells = settings: read-out: Cytotoxicity IC50, ref Tan et al., [31]; cited from earlier work

Ivermectin [reference compound]
Completely Immotile Microfilariae (%) (D. immitis microfilariae; 2.5 µM, 0 h): 0% | Mean completely Immotile (%) (D. immitis microfilariae; 2.5 µM, 0 h): 0% | Completely Immotile Microfilariae (%) (D. immitis microfilariae; 2.5 µM, 24 h): 1% and 2% | Mean completely Immotile (%) (D. immitis microfilariae; 2.5 µM, 24 h): 1.7% | Completely Immotile Microfilariae (%) (D. immitis microfilariae; 2.5 µM, 48 h): 1.5% and 2.5% and 2% | Mean completely Immotile (%) (D. immitis microfilariae; 2.5 µM, 48 h): 2.0% | Completely Immotile Microfilariae (%) (D. immitis microfilariae; 2.5 µM, 72 h): 2% and 2.5% and 3% | Mean completely Immotile (%) (D. immitis microfilariae; 2.5 µM, 72 h): 2.5% | Completely Immotile Microfilariae (%) (D. immitis microfilariae; 2.5 µM, 90 h): 3% and 4% and 4.5% | Mean completely Immotile (%) (D. immitis microfilariae; 2.5 µM, 96 h): 3.8% | Completely Immotile Microfilariae (%) (D. immitis microfilariae; 2.5 µM, 120 h): 5% and 5.5% and 7% | Mean completely Immotile (%) (D. immitis microfilariae; 2.5 µM, 120 h): 5.83% | Mean completely Immotile (%) (D. immitis microfilariae; 5 µM, 0 h): 0% | Completely Immotile Microfilariae (%) (D. immitis microfilariae; 5.0 µM, 0 h): 0% | Mean completely Immotile (%) (D. immitis microfilariae; 5 µM, 24 h): 2.3% | Completely Immotile Microfilariae (%) (D. immitis microfilariae; 5.0 µM, 24 h): 2% and 3% | Mean completely Immotile (%) (D. immitis microfilariae; 5 µM, 48 h): 3.7% | Completely Immotile Microfilariae (%) (D. immitis microfilariae; 5.0 µM, 48 h): 3% and 4% | Mean completely Immotile (%) (D. immitis microfilariae; 5 µM, 72 h): 5.0% | Completely Immotile Microfilariae (%) (D. immitis microfilariae; 5.0 µM, 72 h): 5% and 4.5% and 5.5% | Completely Immotile Microfilariae (%) (D. immitis microfilariae; 5.0 µM, 90 h): 7.5% and 7% and 8.5% | Mean completely Immotile (%) (D. immitis microfilariae; 5 µM, 96 h): 7.7% | Mean completely Immotile (%) (D. immitis microfilariae; 5 µM, 120 h): 15.0% | Completely Immotile Microfilariae (%) (D. immitis microfilariae; 5.0 µM, 120 h): 15% and 12.5% and 17.5% | Completely Immotile Microfilariae (%) (D. immitis microfilariae; 10 µM, 0 h): 0% | Mean completely Immotile (%) (D. immitis microfilariae; 10 µM, 0 h): 0% | Completely Immotile Microfilariae (%) (D. immitis microfilariae; 10 µM, 24 h): 3% and 4% | Mean completely Immotile (%) (D. immitis microfilariae; 10 µM, 24 h): 3.3% | Completely Immotile Microfilariae (%) (D. immitis microfilariae; 10 µM, 48 h): 5% and 6% | Mean completely Immotile (%) (D. immitis microfilariae; 10 µM, 48 h): 5.7% | Completely Immotile Microfilariae (%) (D. immitis microfilariae; 10 µM, 72 h): 7.5% and 8.5% | Mean completely Immotile (%) (D. immitis microfilariae; 10 µM, 72 h): 7.8% | Completely Immotile Microfilariae (%) (D. immitis microfilariae; 10.0 µM, 90 h): 25% and 28.5% and 30% | Mean completely Immotile (%) (D. immitis microfilariae; 10 µM, 96 h): 27.8% | Completely Immotile Microfilariae (%) (D. immitis microfilariae; 10 µM, 120 h): 50% and 53.5% and 53% | Mean completely Immotile (%) (D. immitis microfilariae; 10 µM, 120 h): 52.2% | Mean completely Immotile (%) (D. immitis microfilariae; 15 µM, 0 h): 0% | Completely Immotile Microfilariae (%) (D. immitis microfilariae; 15.0 µM, 0 h): 0% | Mean completely Immotile (%) (D. immitis microfilariae; 15 µM, 24 h): 3.8% | Completely Immotile Microfilariae (%) (D. immitis microfilariae; 15.0 µM, 24 h): 3.5% and 4.5% | Mean completely Immotile (%) (D. immitis microfilariae; 15 µM, 48 h): 6.2% | Completely Immotile Microfilariae (%) (D. immitis microfilariae; 15.0 µM, 48 h): 6% and 6.7% | Mean completely Immotile (%) (D. immitis microfilariae; 15 µM, 72 h): 11.0% | Completely Immotile Microfilariae (%) (D. immitis microfilariae; 15.0 µM, 72 h): 10% and 12% and 11% | Completely Immotile Microfilariae (%) (D. immitis microfilariae; 15.0 µM, 90 h): 30% and 37% and 33% | Mean completely Immotile (%) (D. immitis microfilariae; 15 µM, 96 h): 33.3% | Mean completely Immotile (%) (D. immitis microfilariae; 15 µM, 120 h): 72.3% | Completely Immotile Microfilariae (%) (D. immitis microfilariae; 15.0 µM, 120 h): 70% and 75% and 72% | Mean completely Immotile (%) (D. immitis microfilariae; 20 µM, 0 h): 0% | Completely Immotile Microfilariae (%) (D. immitis microfilariae; 20.0 µM, 0 h): 0% | Mean completely Immotile (%) (D. immitis microfilariae; 20 µM, 24 h): 11.2% | Completely Immotile Microfilariae (%) (D. immitis microfilariae; 20.0 µM, 24 h): 10% and 12.5% and 11% | Mean completely Immotile (%) (D. immitis microfilariae; 20 µM, 48 h): 15.7% | Completely Immotile Microfilariae (%) (D. immitis microfilariae; 20.0 µM, 48 h): 15% and 17% | Mean completely Immotile (%) (D. immitis microfilariae; 20 µM, 72 h): 26.0% | Completely Immotile Microfilariae (%) (D. immitis microfilariae; 20.0 µM, 72 h): 25% and 30% and 23% | Completely Immotile Microfilariae (%) (D. immitis microfilariae; 20.0 µM, 90 h): 50% and 65% and 49% | Mean completely Immotile (%) (D. immitis microfilariae; 20 µM, 96 h): 54.7% | Mean completely Immotile (%) (D. immitis microfilariae; 20 µM, 120 h): 90.3% | Completely Immotile Microfilariae (%) (D. immitis microfilariae; 20.0 µM, 120 h): 90% and 94% and 87% | Mean completely Immotile (%) (D. immitis microfilariae; 30 µM, 0 h): 0% | Completely Immotile Microfilariae (%) (D. immitis microfilariae; 30.0 µM, 0 h): 0% | Mean completely Immotile (%) (D. immitis microfilariae; 30 µM, 24 h): 27.7% | Completely Immotile Microfilariae (%) (D. immitis microfilariae; 30.0 µM, 24 h): 25% and 30% and 28% | Mean completely Immotile (%) (D. immitis microfilariae; 30 µM, 48 h): 43.0% | Completely Immotile Microfilariae (%) (D. immitis microfilariae; 30.0 µM, 48 h): 40% and 46% and 43% | Mean completely Immotile (%) (D. immitis microfilariae; 30 µM, 72 h): 56.0% | Completely Immotile Microfilariae (%) (D. immitis microfilariae; 30.0 µM, 72 h): 50% and 60% and 58% | Completely Immotile Microfilariae (%) (D. immitis microfilariae; 30.0 µM, 90 h): 80% and 85% and 88% | Mean completely Immotile (%) (D. immitis microfilariae; 30 µM, 96 h): 84.3% | Mean completely Immotile (%) (D. immitis microfilariae; 30 µM, 120 h): 95.3% | Completely Immotile Microfilariae (%) (D. immitis microfilariae; 30.0 µM, 120 h): 95% and 98% and 93% | EC50 (D. immitis microfilariae; read-out: Anti-parasitic EC50): 17.6 µM | IC50 (mammalian cells): 37.4 µM
